How the values were obtained:
[1] = target: Beta-3 adrenergic receptor (Homo sapiens, UniProt P13945); experiment: GPCRScan assay: inhibition of Beta3; parameters: radioligand conc. used [nm] 0.2 – 0.5, parental cells HEK Flp-In
[2] = system: Tyrosine-protein kinase ABL1 (Homo sapiens), P00519 [F317I]; conditions: Compound concentration 1000.0 nM
[3] = target: RAC-alpha serine/threonine-protein kinase (Homo sapiens) (UniProt P31749); conditions: Compound concentration 1000.0 nM
[4] = target: Protein-tyrosine kinase 6 (Homo sapiens) (UniProt Q13882); conditions: Compound concentration 1000.0 nM
[5] = target: Peripheral plasma membrane protein CASK (Homo sapiens) (UniProt O14936); conditions: Compound concentration 1000.0 nM
[6] = target: Cyclin-dependent kinase 4 (Homo sapiens) (UniProt P11802); conditions: Compound concentration 1000.0 nM
[7] = target: Cyclin-dependent kinase 5 (Homo sapiens) (UniProt Q00535); conditions: Compound concentration 1000.0 nM
[8] = target: Dual specificity protein kinase CLK4 (Homo sapiens) (UniProt Q9HAZ1); conditions: Compound concentration 1000.0 nM
[9] = target: Casein kinase I isoform gamma-1 (Homo sapiens) (UniProt Q9HCP0); conditions: Compound concentration 1000.0 nM
[10] = target: Casein kinase II subunit alpha' (Homo sapiens) (UniProt P19784); conditions: Compound concentration 1000.0 nM
[11] = target: Death-associated protein kinase 1 (Homo sapiens) (UniProt P53355); conditions: Compound concentration 1000.0 nM
[12] = system: Epidermal growth factor receptor (Homo sapiens), P00533 [L858R]; conditions: Compound concentration 1000.0 nM
[13] = target: Ephrin type-A receptor 6 (Homo sapiens) (UniProt Q9UF33); conditions: Compound concentration 1000.0 nM
[14] = target: Fibroblast growth factor receptor 2 (Homo sapiens) (UniProt P21802); conditions: Compound concentration 1000.0 nM
[15] = target: Fibroblast growth factor receptor 4 (Homo sapiens) (UniProt P22455); conditions: Compound concentration 1000.0 nM
[16] = system: Receptor-type tyrosine-protein kinase FLT3 (Homo sapiens), P36888 [N841I]; conditions: Compound concentration 1000.0 nM
[17] = target: Insulin receptor-related protein (Homo sapiens) (UniProt P14616); conditions: Compound concentration 1000.0 nM
[18] = target: Interleukin-1 receptor-associated kinase 3 (Homo sapiens) (UniProt Q9Y616); conditions: Compound concentration 1000.0 nM
[19] = target: LIM domain kinase 1 (Homo sapiens) (UniProt P53667); conditions: Compound concentration 1000.0 nM
[20] = target: Leukocyte tyrosine kinase receptor (Homo sapiens) (UniProt P29376); conditions: Compound concentration 1000.0 nM
[21] = target: Mitogen-activated protein kinase kinase kinase kinase 2 (Homo sapiens) (UniProt Q12851); conditions: Compound concentration 1000.0 nM
[22] = target: MAP kinase-interacting serine/threonine-protein kinase 1 (Homo sapiens) (UniProt Q9BUB5); conditions: Compound concentration 1000.0 nM
[23] = target: Myosin light chain kinase 2, skeletal/cardiac muscle (Homo sapiens) (UniProt Q9H1R3); conditions: Compound concentration 1000.0 nM
[24] = target: Cyclin-dependent kinase 16 (Homo sapiens) (UniProt Q00536); conditions: Compound concentration 1000.0 nM
[25] = target: Phosphorylase b kinase regulatory subunit alpha, liver isoform (Homo sapiens) (UniProt P46019); conditions: Compound concentration 1000.0 nM
[26] = system: Phosphatidylinositol 4,5-bisphosphate 3-kinase catalytic subunit alpha isoform (Homo sapiens), P42336 [C420R]; conditions: Compound concentration 1000.0 nM
[27] = target: Serine/threonine-protein kinase pim-1 (Homo sapiens) (UniProt P11309); conditions: Compound concentration 1000.0 nM
[28] = target: Membrane-associated tyrosine- and threonine-specific cdc2-inhibitory kinase (Homo sapiens) (UniProt Q99640); conditions: Compound concentration 1000.0 nM
[29] = target: Serine/threonine-protein kinase N2 (Homo sapiens) (UniProt Q16513); conditions: Compound concentration 1000.0 nM
[30] = target: Serine/threonine-protein kinase PLK3 (Homo sapiens) (UniProt Q9H4B4); conditions: Compound concentration 1000.0 nM
[31] = target: Protein kinase C epsilon type (Homo sapiens) (UniProt Q02156); conditions: Compound concentration 1000.0 nM
[32] = target: Serine/threonine-protein kinase D2 (Homo sapiens) (UniProt Q9BZL6); conditions: Compound concentration 1000.0 nM
[33] = target: Serine/threonine-protein kinase D3 (Homo sapiens) (UniProt O94806); conditions: Compound concentration 1000.0 nM
[34] = system: Proto-oncogene tyrosine-protein kinase receptor Ret (Homo sapiens), P07949 [M918T]; conditions: Compound concentration 1000.0 nM
[35] = target: SRSF protein kinase 2 (Homo sapiens) (UniProt P78362); conditions: Compound concentration 1000.0 nM
[36] = target: Serine/threonine-protein kinase 25 (Homo sapiens) (UniProt O00506); conditions: Compound concentration 1000.0 nM
[37] = target: Mitogen-activated protein kinase kinase kinase 19 (Homo sapiens) (UniProt Q56UN5); conditions: Compound concentration 1000.0 nM
[38] = target: T1, 5-hydroxytryptamine receptor 2C (Homo sapiens) (UniProt P28335); conditions: Compound concentration 10.0 uM
T1 sequence (whole entry): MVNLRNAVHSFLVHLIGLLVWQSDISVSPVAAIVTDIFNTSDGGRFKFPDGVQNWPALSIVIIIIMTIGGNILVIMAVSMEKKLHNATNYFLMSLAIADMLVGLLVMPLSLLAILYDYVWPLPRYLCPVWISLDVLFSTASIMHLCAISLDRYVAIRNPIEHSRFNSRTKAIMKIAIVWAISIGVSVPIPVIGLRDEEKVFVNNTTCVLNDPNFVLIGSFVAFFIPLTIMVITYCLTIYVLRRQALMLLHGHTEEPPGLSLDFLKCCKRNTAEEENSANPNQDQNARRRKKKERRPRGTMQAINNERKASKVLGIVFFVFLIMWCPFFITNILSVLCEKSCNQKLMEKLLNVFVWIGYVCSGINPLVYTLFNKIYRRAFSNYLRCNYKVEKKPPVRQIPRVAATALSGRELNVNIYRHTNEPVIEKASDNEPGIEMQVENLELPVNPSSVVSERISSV

[39] = target: Muscarinic acetylcholine receptor M2 (Homo sapiens) (UniProt P08172); conditions: Compound concentration 10.0 uM

Chain of LIM domain kinase 1 (Homo sapiens) (P53667 whole entry, looked up, the tested form may be a part): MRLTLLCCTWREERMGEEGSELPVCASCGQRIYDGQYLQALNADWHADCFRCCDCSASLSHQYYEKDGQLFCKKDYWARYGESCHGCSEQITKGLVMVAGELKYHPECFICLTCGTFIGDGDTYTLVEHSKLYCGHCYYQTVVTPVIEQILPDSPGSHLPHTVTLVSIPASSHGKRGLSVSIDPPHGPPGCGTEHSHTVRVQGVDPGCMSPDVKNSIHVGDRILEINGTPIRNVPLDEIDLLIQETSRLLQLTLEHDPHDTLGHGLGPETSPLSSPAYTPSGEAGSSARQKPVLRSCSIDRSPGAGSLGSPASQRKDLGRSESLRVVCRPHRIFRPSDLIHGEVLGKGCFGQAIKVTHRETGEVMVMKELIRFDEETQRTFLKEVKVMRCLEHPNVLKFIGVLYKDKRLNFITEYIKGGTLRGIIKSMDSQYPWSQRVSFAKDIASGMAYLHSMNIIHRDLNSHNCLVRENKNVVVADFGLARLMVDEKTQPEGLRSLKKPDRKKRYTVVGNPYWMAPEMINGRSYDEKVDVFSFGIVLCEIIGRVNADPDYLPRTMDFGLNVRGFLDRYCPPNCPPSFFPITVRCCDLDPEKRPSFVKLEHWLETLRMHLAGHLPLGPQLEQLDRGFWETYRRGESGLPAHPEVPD
Chain of Cyclin-dependent kinase 4 (Homo sapiens) (P11802 whole entry): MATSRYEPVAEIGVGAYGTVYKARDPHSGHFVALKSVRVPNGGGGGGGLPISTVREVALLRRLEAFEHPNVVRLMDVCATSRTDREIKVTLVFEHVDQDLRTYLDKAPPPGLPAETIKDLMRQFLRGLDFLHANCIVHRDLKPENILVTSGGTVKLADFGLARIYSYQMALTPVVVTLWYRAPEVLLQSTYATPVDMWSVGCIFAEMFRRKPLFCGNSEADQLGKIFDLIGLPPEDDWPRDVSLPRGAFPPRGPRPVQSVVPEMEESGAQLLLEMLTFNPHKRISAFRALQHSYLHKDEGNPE
Chain of Cyclin-dependent kinase 5 (Homo sapiens) (Q00535 whole entry, looked up): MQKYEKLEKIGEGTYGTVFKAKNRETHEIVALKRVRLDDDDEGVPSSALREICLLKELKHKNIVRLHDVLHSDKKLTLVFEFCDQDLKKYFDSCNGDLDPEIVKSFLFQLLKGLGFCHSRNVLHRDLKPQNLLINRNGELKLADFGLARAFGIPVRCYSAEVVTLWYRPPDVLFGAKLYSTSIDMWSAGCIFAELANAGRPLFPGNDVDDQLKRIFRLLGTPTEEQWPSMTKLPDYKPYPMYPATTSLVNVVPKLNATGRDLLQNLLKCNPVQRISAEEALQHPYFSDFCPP
Chain of Beta-3 adrenergic receptor (P13945 whole entry): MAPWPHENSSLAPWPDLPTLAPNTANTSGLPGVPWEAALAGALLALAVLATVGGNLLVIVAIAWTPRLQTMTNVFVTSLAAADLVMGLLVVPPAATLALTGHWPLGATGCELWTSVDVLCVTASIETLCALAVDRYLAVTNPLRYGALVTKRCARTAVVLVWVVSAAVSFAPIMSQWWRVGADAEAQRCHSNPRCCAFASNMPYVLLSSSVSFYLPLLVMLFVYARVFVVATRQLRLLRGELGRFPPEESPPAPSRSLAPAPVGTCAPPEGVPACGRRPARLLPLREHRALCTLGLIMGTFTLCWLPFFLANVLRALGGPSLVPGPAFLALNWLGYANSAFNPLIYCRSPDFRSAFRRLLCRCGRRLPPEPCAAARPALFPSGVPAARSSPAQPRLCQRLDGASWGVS
Chain of Serine/threonine-protein kinase PLK3 (Homo sapiens) (Q9H4B4 whole entry, looked up): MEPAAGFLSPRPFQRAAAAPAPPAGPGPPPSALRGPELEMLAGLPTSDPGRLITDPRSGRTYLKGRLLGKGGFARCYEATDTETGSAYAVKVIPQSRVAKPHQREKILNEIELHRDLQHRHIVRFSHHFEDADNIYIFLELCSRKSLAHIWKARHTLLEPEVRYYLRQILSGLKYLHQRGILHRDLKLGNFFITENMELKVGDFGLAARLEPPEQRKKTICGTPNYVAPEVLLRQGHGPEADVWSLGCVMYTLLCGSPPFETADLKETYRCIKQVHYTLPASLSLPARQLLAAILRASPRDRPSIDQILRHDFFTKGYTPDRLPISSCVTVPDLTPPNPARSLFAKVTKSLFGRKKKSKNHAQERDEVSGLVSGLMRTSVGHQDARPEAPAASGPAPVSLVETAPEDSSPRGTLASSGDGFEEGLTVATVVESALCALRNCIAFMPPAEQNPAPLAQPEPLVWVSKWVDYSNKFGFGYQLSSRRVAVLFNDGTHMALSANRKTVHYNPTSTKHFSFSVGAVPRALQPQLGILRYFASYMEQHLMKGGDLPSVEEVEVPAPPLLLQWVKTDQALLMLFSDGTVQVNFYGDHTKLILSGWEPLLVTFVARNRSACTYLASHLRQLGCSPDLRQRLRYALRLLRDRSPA
Chain of Interleukin-1 receptor-associated kinase 3 (Homo sapiens) (Q9Y616 whole entry, the tested form may be a part): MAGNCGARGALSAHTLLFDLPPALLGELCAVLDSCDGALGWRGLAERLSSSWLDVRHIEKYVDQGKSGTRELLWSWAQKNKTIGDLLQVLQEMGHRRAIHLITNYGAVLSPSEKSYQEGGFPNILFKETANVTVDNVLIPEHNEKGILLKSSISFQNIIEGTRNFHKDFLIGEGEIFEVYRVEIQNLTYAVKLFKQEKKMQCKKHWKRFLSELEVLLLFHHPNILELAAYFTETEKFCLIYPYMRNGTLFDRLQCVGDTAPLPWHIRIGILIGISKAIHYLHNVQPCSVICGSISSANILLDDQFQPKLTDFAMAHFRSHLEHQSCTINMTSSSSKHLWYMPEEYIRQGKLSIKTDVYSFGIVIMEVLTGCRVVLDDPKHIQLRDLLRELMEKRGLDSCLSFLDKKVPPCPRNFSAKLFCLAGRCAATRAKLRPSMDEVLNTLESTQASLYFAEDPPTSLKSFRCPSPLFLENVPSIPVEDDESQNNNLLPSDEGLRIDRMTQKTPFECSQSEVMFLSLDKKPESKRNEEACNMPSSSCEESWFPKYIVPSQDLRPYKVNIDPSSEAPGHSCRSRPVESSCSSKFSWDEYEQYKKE
Chain of Serine/threonine-protein kinase pim-1 (Homo sapiens) (P11309 whole entry, looked up): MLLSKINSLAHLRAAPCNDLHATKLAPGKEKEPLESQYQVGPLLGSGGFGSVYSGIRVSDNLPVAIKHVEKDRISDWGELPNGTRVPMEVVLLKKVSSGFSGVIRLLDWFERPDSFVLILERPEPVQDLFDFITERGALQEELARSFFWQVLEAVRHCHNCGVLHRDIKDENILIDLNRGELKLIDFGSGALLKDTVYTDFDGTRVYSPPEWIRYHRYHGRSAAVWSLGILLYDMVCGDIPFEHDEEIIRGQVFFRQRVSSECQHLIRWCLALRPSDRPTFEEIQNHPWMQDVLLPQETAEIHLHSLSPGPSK
Chain of Phosphatidylinositol 4,5-bisphosphate 3-kinase catalytic subunit alpha isoform (Homo sapiens), P42336 [C420R] (P42336 whole entry C420R, canonical isoform): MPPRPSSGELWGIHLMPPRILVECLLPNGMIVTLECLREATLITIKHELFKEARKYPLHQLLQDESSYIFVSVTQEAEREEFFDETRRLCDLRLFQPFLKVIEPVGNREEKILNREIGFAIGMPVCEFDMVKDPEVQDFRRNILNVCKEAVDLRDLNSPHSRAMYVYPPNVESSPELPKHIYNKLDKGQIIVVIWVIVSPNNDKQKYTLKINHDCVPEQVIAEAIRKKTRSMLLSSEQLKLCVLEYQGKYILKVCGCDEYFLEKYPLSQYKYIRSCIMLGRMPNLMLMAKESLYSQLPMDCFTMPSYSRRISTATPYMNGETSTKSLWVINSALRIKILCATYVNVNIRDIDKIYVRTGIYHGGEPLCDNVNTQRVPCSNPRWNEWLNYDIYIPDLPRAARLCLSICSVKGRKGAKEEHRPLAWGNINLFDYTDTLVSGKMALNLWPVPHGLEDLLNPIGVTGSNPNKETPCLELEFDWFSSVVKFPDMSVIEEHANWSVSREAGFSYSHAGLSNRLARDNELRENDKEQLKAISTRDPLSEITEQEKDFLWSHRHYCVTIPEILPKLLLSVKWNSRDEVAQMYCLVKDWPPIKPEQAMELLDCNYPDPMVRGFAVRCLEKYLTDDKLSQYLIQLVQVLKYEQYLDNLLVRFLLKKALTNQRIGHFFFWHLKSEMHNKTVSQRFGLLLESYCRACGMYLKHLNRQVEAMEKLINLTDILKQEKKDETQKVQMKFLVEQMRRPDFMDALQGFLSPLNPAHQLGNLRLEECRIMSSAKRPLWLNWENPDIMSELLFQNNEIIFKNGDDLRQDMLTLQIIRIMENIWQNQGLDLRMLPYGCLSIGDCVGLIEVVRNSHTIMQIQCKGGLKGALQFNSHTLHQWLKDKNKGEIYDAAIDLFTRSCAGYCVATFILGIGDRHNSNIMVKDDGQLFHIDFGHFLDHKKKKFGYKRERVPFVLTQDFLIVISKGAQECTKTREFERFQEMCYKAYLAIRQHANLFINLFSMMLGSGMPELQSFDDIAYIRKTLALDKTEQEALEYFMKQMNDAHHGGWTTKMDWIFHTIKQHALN
Chain of Protein-tyrosine kinase 6 (Homo sapiens) (Q13882 whole entry, looked up): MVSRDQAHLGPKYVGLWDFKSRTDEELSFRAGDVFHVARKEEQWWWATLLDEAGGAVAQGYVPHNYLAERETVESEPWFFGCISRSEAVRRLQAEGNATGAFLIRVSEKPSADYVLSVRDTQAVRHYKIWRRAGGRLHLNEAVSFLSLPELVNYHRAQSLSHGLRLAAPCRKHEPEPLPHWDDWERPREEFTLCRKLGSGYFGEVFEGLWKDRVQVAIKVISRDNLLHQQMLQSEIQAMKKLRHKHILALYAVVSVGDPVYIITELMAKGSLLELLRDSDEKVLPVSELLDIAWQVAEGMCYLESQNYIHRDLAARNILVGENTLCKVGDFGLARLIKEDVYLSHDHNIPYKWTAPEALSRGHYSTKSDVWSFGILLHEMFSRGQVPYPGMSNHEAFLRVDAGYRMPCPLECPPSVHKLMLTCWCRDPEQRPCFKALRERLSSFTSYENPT

Cc1c(C(=O)O)cc(-c2ccc(C3CCNCC3)cc2)c2ccc(-c3ccc(C(F)(F)F)cc3)cc12 [PPTN-NC]
inactive: residual activity [2] 100% | residual activity [3] 100% | residual activity [4] 100% | residual activity [5] 100% | residual activity [6] 100% | residual activity [7] 100% | residual activity [8] 100% | residual activity [9] 100% | residual activity [10] 100% | residual activity [11] 100% | residual activity [12] 100% | residual activity [13] 100% | residual activity [14] 100% | residual activity [15] 100% | residual activity [16] 100% | residual activity [17] 100% | residual activity [18] 100% | residual activity [19] 100% | residual activity [20] 100% | residual activity [21] 100% | residual activity [22] 100% | residual activity [23] 100% | residual activity [24] 100% | residual activity [25] 100% | residual activity [26] 100% | residual activity [27] 100% | residual activity [28] 100% | residual activity [29] 100% | residual activity [30] 100% | residual activity [31] 100% | residual activity [32] 100% | residual activity [33] 100% | residual activity [34] 100% | residual activity [35] 82% | residual activity [36] 100% | residual activity [37] 100% | inhibition [38] -4.53% | inhibition [39] 19.3%
3.26 µM: Ki [1]

O=C(O)c1cc(-c2ccc(C3CCNCC3)cc2)c2ccc(-c3ccc(C(F)(F)F)cc3)cc2c1 [PPTN]
2.92 µM: Ki [1]
inactive: residual activity [2] 100% | residual activity [3] 99% | residual activity [4] 100% | residual activity [5] 100% | residual activity [6] 100% | residual activity [7] 100% | residual activity [8] 100% | residual activity [9] 100% | residual activity [10] 100% | residual activity [11] 100% | residual activity [12] 100% | residual activity [13] 100% | residual activity [14] 100% | residual activity [15] 100% | residual activity [16] 100% | residual activity [17] 100% | residual activity [18] 100% | residual activity [19] 100% | residual activity [20] 100% | residual activity [21] 100% | residual activity [22] 100% | residual activity [23] 100% | residual activity [24] 100% | residual activity [25] 100% | residual activity [26] 95% | residual activity [27] 100% | residual activity [28] 100% | residual activity [29] 100% | residual activity [30] 100% | residual activity [31] 100% | residual activity [32] 100% | residual activity [33] 100% | residual activity [34] 92% | residual activity [35] 100% | residual activity [36] 100% | residual activity [37] 100% | inhibition [38] 11.2% | inhibition [39] 10.9%

Source: ChEMBL document CHEMBL4507292 (2021)
